In US9695155B2, “Herbicidal substituted pyrimidinyloxy benzene compounds” (E. I. DU PONT DE NEMOURS AND COMPANY, priority 2013, dated 2017):

Columns and labels:
rice = test: Test B flooded paddy test; type: in vivo, Oryza sativa; conditions: Flood, 250 g ai/ha; 0 to 100 scale where 0 is no effect and 100 is complete control
Experimental: (§1) Plant species in the flooded paddy test selected from rice (Oryza sativa), sedge, umbrella (small-flower umbrella sedge, Cyperus difformis), (Heteranthera limosa), and barnyardgrass (Echinochloa crus-galli) were grown to the 2-leaf stage for testing. At time of treatment, test pots were flooded to 3 cm above the soil surface, treated by application of test compounds directly to the paddy water, and then maintained at that water depth for the duration of the test. Treated plants and controls were maintained in a greenhouse for 13 to 15 days, after which time all species were compared to controls and visually evaluated. Plant response ratings, summarized in Table B, are based on a scale of 0 to 100 where 0 is no effect and 100 is complete control. A dash (-) response means no test result.

pigweed [1] = test: Test A preemergence; type: in vivo, Amaranthus retroflexus; conditions: for Pigweed plant response rating: 500 g ai/ha
Source text: (§2) Seeds of plant species selected from barnyardgrass (Echinochloa crus-galli), kochia (Kochia scoparia), ragweed (common ragweed, Ambrosia elatior), Italian ryegrass (Lolium multiflorum), large (Lg) crabgrass (Digitaria sanguinalis), giant foxtail (Setaria faberii), morningglory (Ipomoea spp.), pigweed (Amaranthus retroflexus), velvetleaf (Abutilon theophrasti), wheat (Triticum aestivum), and corn (Zea mays) were planted into a blend of loam soil and sand and treated preemergence with a directed soil spray using test chemicals formulated in a non-phytotoxic solvent mixture which included a surfactant.
(§3) At the same time, plants selected from these crop and weed species and also blackgrass (Alopecurus myosuroides), and galium (catchweed bedstraw, Galium aparine) were planted in pots containing the same blend of loam soil and sand and treated with postemergence applications of test chemicals formulated in the same manner. Plants ranged in height from 2 to 10 cm and were in the one- to two-leaf stage for the postemergence treatment. Treated plants and untreated controls were maintained in a greenhouse for approximately 10 days, after which time all treated plants were compared to untreated controls and visually evaluated for injury. Plant response ratings, summarized in Table A, are based on a 0 to 100 scale where 0 is no effect and 100 is complete control. A dash (-) response means no test result.

sedge, umbrella = test: Test B flooded paddy test; type: in vivo, Cyperus difformis; conditions: Flood, 250 g ai/ha; 0 to 100 scale where 0 is no effect and 100 is complete control
Experimental: as §1

corn [2] = test: Test A preemergence; type: in vivo, Zea mays; conditions: for Corn plant response rating: 500 g ai/ha
Summary of the method: (§4)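 Greenhouse pot test, loam/sand soil. Formulation: non-phytotoxic solvent mix plus surfactant. Pre: directed spray onto soil after sowing. Post: plants at 1–2 leaf, 2–10 cm. Rated visually vs untreated controls at ~10 d, 0 (no effect) to 100 (complete control).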

barnyardgrass [3] = test: Test A preemergence; type: in vivo, Echinochloa crus-galli; conditions: for Barnyardgrass plant response rating: 500 g ai/ha
Source text: as §2, §3

morningglory [4] = test: Test A postemergence; type: in vivo, Ipomoea spp.
Summary of the method: as §4

velvetleaf [5] = test: Test A postemergence; type: in vivo, Abutilon theophrasti
Summary of the method: as §4

giant foxtail [6] = test: Test A preemergence; type: in vivo, Setaria faberii; conditions: for Foxtail, Giant plant response rating: 500 g ai/ha
Summary of the method: as §4

velvetleaf [7] = test: Test A preemergence; type: in vivo, Abutilon theophrasti; conditions: for Velvetleaf plant response rating: 500 g ai/ha
Source text: as §2, §3

large (Lg) crabgrass [8] = test: Test A postemergence; type: in vivo, Digitaria sanguinalis
Summary of the method: as §4

wheat [9] = test: Test A preemergence; type: in vivo, Triticum aestivum; conditions: for Wheat plant response rating: 500 g ai/ha
Summary of the method: as §4

Heteranthera limosa = test: Test B flooded paddy test; type: in vivo; conditions: Flood, 250 g ai/ha; 0 to 100 scale where 0 is no effect and 100 is complete control
Experimental: as §1

corn [10] = test: Test A postemergence; type: in vivo, Zea mays
Summary of the method: as §4

morningglory [11] = test: Test A preemergence; type: in vivo, Ipomoea spp.; conditions: for Morningglory plant response rating (0 to 100 scale): 125 g ai/ha; for Morningglory plant response rating: 500 g ai/ha, 0 to 100 scale where 0 is no effect and 100 is complete control
Summary of the method: as §4

barnyardgrass [12] = test: Test B flooded paddy test; type: in vivo, Echinochloa crus-galli; conditions: Flood, 250 g ai/ha; 0 to 100 scale where 0 is no effect and 100 is complete control
Experimental: as §1

barnyardgrass [13] = test: Test A postemergence; type: in vivo, Echinochloa crus-galli
Summary of the method: as §4

giant foxtail [14] = test: Test A postemergence; type: in vivo, Setaria faberii
Source text: as §2, §3

pigweed [15] = test: Test A postemergence; type: in vivo, Amaranthus retroflexus
Summary of the method: as §4

wheat [16] = test: Test A postemergence; type: in vivo, Triticum aestivum
Source text: as §2, §3

large (Lg) crabgrass [17] = test: Test A preemergence; type: in vivo, Digitaria sanguinalis; conditions: for Crabgrass, Large plant response rating: 500 g ai/ha
Summary of the method: as §4

[18] = 0 to 100 scale where 0 is no effect and 100 is complete control
[19] = 125 g ai/ha, 0 to 100 scale, 0 no effect, 100 complete control
[20] = 500 g ai/ha, 0 to 100 scale where 0 is no effect and 100 is complete control
[21] = 125 g ai/ha, 0 to 100 scale where 0 is no effect and 100 is complete control
[22] = 0 to 100 scale, 0 no effect, 100 complete control, approx. 10 days
[23] = 500 g ai/ha, 0 to 100 scale, 0 no effect, 100 complete control

NN=Cc1cccc(Oc2ncc(Cl)cn2)c1-n1cc(Cl)cn1 [Compound 295]
Plant response rating, Rice (rice): 0 | Pigweed plant response rating (0 to 100 scale) (pigweed [1]; 125 g ai/ha): 20 | Pigweed plant response rating (pigweed [1]; [18]): 60 | Plant response rating, Sedge, Umbrella (sedge, umbrella): 0 | Corn plant response rating (0 to 100 scale) (corn [2]; 125 g ai/ha): 0 | Corn plant response rating (corn [2]; [18]): 0 | Barnyardgrass plant response rating (0 to 100 scale, 0 is no effect, 100 is complete control) (barnyardgrass [3]; 125 g ai/ha): 0 | Barnyardgrass plant response rating (barnyardgrass [3]; [18]): 0 | Plant response rating, Morningglory (morningglory [4]; [19]): 40 | Plant response rating, Morningglory (morningglory [4]; [20]): 40 | Plant response rating, Velvetleaf (velvetleaf [5]; [19]): 30 | Plant response rating, Velvetleaf (velvetleaf [5]; [20]): 30 | Foxtail, Giant plant response rating (0 to 100 scale) (giant foxtail [6]; 125 g ai/ha): 0 | Foxtail, Giant plant response rating (giant foxtail [6]; [18]): 0 | Velvetleaf plant response rating (0 to 100 scale) (velvetleaf [7]; 125 g ai/ha): 0 | Velvetleaf plant response rating (velvetleaf [7]; [18]): 0 | Plant response rating, Crabgrass, Large (large (Lg) crabgrass [8]; [19]): 0 | Plant response rating, Crabgrass, Large (large (Lg) crabgrass [8]; [20]): 0 | Wheat plant response rating (0 to 100 scale) (wheat [9]; 125 g ai/ha): 0 | Wheat plant response rating (wheat [9]; [18]): 0 | Plant response rating, Ducksalad (Heteranthera limosa): 0 | Plant response rating, Corn (corn [10]; [19]): 0 | Plant response rating, Corn (corn [10]; [20]): 0 | Morningglory plant response rating (0 to 100 scale) (morningglory [11]): 0 | Morningglory plant response rating (morningglory [11]): 0 | Plant response rating, Barnyardgrass (barnyardgrass [12]): 0 | Plant response rating, Barnyardgrass (barnyardgrass [13]; [19]): 0 | Plant response rating, Barnyardgrass (barnyardgrass [13]; [20]): 0 | Plant response rating, Foxtail, Giant (giant foxtail [14]; [19]): 0 | Plant response rating, Foxtail, Giant (giant foxtail [14]; [20]): 0 | Plant response rating, Pigweed (pigweed [15]; [19]): 40 | Plant response rating, Pigweed (pigweed [15]; [20]): 70 | Plant response rating, Wheat (wheat [16]; [19]): 0 | Plant response rating, Wheat (wheat [16]; [20]): 0 | Crabgrass, Large plant response rating (0 to 100 scale) (large (Lg) crabgrass [17]; 125 g ai/ha): 0 | Crabgrass, Large plant response rating (large (Lg) crabgrass [17]; [18]): 0

Clc1cnc(Oc2cccc(-c3ncco3)c2-n2cc(Br)cn2)nc1 [Compound 287]
Plant response rating, Rice (rice): 0 | Pigweed plant response rating (0 to 100 scale) (pigweed [1]; 125 g ai/ha): 0 | Pigweed plant response rating (pigweed [1]; [18]): 100 | Plant response rating, Sedge, Umbrella (sedge, umbrella): 0 | Corn plant response rating (0 to 100 scale) (corn [2]; 125 g ai/ha): 0 | Corn plant response rating (corn [2]; [18]): 0 | Barnyardgrass plant response rating (0 to 100 scale, 0 is no effect, 100 is complete control) (barnyardgrass [3]; 125 g ai/ha): 0 | Barnyardgrass plant response rating (barnyardgrass [3]; [18]): 0 | Plant response rating, Morningglory (morningglory [4]; [19]): 10 | Plant response rating, Morningglory (morningglory [4]; [20]): 20 | Plant response rating, Velvetleaf (velvetleaf [5]; [19]): 10 | Plant response rating, Velvetleaf (velvetleaf [5]; [20]): 20 | Foxtail, Giant plant response rating (0 to 100 scale) (giant foxtail [6]; 125 g ai/ha): 0 | Foxtail, Giant plant response rating (giant foxtail [6]; [18]): 40 | Velvetleaf plant response rating (0 to 100 scale) (velvetleaf [7]; 125 g ai/ha): 0 | Velvetleaf plant response rating (velvetleaf [7]; [18]): 0 | Plant response rating, Crabgrass, Large (large (Lg) crabgrass [8]; [19]): 10 | Plant response rating, Crabgrass, Large (large (Lg) crabgrass [8]; [20]): 20 | Wheat plant response rating (0 to 100 scale) (wheat [9]; 125 g ai/ha): 0 | Wheat plant response rating (wheat [9]; [18]): 0 | Plant response rating, Ducksalad (Heteranthera limosa): 0 | Plant response rating, Corn (corn [10]; [19]): 0 | Plant response rating, Corn (corn [10]; [20]): 0 | Morningglory plant response rating (0 to 100 scale) (morningglory [11]): 0 | Morningglory plant response rating (morningglory [11]): 0 | Plant response rating, Barnyardgrass (barnyardgrass [12]): 0 | Plant response rating, Barnyardgrass (barnyardgrass [13]; [19]): 0 | Plant response rating, Barnyardgrass (barnyardgrass [13]; [20]): 0 | Plant response rating, Foxtail, Giant (giant foxtail [14]; [19]): 0 | Plant response rating, Foxtail, Giant (giant foxtail [14]; [20]): 0 | Plant response rating, Pigweed (pigweed [15]; [19]): 30 | Plant response rating, Pigweed (pigweed [15]; [20]): 50 | Plant response rating, Wheat (wheat [16]; [19]): 0 | Plant response rating, Wheat (wheat [16]; [20]): 0 | Crabgrass, Large plant response rating (0 to 100 scale) (large (Lg) crabgrass [17]; 125 g ai/ha): 0 | Crabgrass, Large plant response rating (large (Lg) crabgrass [17]; [18]): 70

N#Cc1cnn(-c2ccccc2Oc2ncc(Cl)cn2)c1 [Compound 33]
Plant response rating, Rice (rice): 0 | Plant response rating, Pigweed (pigweed [1]; [21]): 100 | Pigweed plant response rating (pigweed [1]; [22]): 100 | Plant response rating, Sedge, Umbrella (sedge, umbrella): 20 | Plant response rating, Corn (corn [2]; [21]): 0 | Corn plant response rating (corn [2]; [22]): 0 | Plant response rating, Barnyardgrass (barnyardgrass [3]; [21]): 0 | Barnyardgrass plant response rating (barnyardgrass [3]; [22]): 70 | Plant response rating, Velvetleaf (velvetleaf [5]; [21]): 100 | Plant response rating, Velvetleaf (velvetleaf [5]; [23]): 100 | Plant response rating, Foxtail, Giant (giant foxtail [6]; [21]): 90 | Foxtail, Giant plant response rating (giant foxtail [6]; [22]): 100 | Plant response rating, Velvetleaf (velvetleaf [7]; [21]): 50 | Velvetleaf plant response rating (velvetleaf [7]; [22]): 100 | Plant response rating, Crabgrass, Large (large (Lg) crabgrass [8]; [21]): 20 | Plant response rating, Crabgrass, Large (large (Lg) crabgrass [8]; [23]): 80 | Plant response rating, Wheat (wheat [9]; [21]): 0 | Wheat plant response rating (wheat [9]; [22]): 0 | Plant response rating, Ducksalad (Heteranthera limosa): 80 | Plant response rating, Corn (corn [10]; [21]): 0 | Plant response rating, Corn (corn [10]; [23]): 100 | Plant response rating, Barnyardgrass (barnyardgrass [12]): 10 | Plant response rating, Barnyardgrass (barnyardgrass [13]; [21]): 0 | Plant response rating, Barnyardgrass (barnyardgrass [13]; [23]): 100 | Plant response rating, Foxtail, Giant (giant foxtail [14]; [21]): 70 | Plant response rating, Foxtail, Giant (giant foxtail [14]; [23]): 100 | Plant response rating, Pigweed (pigweed [15]; [21]): 100 | Plant response rating, Pigweed (pigweed [15]; [23]): 100 | Plant response rating, Wheat (wheat [16]; [21]): 0 | Plant response rating, Wheat (wheat [16]; [23]): 90 | Plant response rating, Crabgrass, Large (large (Lg) crabgrass [17]; [21]): 90 | Crabgrass, Large plant response rating (large (Lg) crabgrass [17]; [22]): 100
